Experimental data taken from ChEMBL document CHEMBL3745638, “Synthesis and biological evaluation of a novel artesunate-podophyllotoxin conjugate as anticancer agent” (Bioorg Med Chem Lett, 2016).
Activity calls are given as the source filed them. No cut-off for these calls is given here.

Legend:
K562/Adr [1] = experiment: Inhibition of P-glycoprotein in human K562/ADR cells at 2.5 uM after 48 hrs by Western blot analysis; assay type: cell-based
HUVEC = experiment: Antiproliferative activity against HUVEC assessed as growth inhibition after 72 hrs by CCK-8 assay; assay type: cell-based; conditions: Homo sapiens
K562/Adr [2] = experiment: Induction of apoptosis in human K562/ADR cells assessed as necrotic cells at 2.5 uM after 48 hrs by Annexin V-APC/7-AAD staining based flow cytometry (reference value: 3.57%); assay type: functional
[3] = Antiproliferative activity against human K562/ADR cells assessed as growth inhibition after 72 hrs by CCK-8 assay; assay type: functional, cell-based
K562 [4] = experiment: Resistance factor, ratio of IC50 for human K562/ADR cells to IC50 for human K562 cells; assay type: functional
A549 = experiment: Antiproliferative activity against human A549 cells assessed as growth inhibition after 72 hrs by CCK-8 assay; assay type: functional, cell-based; conditions: A549, 72 h
HeLa = experiment: Antiproliferative activity against human HeLa cells assessed as growth inhibition after 72 hrs by CCK-8 assay; assay type: functional, cell-based
K562/Adr [5] = experiment: Induction of apoptosis in human K562/ADR cells assessed as nuclear condensation at 2.5 uM after 48 hrs by Hoechst 33342 staining based fluorescence microscopy; assay type: functional, cell-based
K562/Adr [6] = experiment: Induction of apoptosis in human K562/ADR cells assessed as induction of cell shrinkage at 2.5 uM after 48 hrs by Hoechst 33342 staining based fluorescence microscopy; assay type: functional
K562/Adr [7] = experiment: Induction of apoptosis in human K562/ADR cells assessed as early apoptotic cells at 2.5 uM after 48 hrs by Annexin V-APC/7-AAD staining based flow cytometry (reference value: 1.49%); assay type: functional
K562 [8] = experiment: Antiproliferative activity against human K562 cells assessed as growth inhibition after 72 hrs by CCK-8 assay; assay type: functional, cell-based; conditions: K562, 72 h
K562/Adr [9] = experiment: Induction of apoptosis in human K562/ADR cells assessed as nuclear fragmentation at 2.5 uM after 48 hrs by Hoechst 33342 staining based fluorescence microscopy; assay type: functional, cell-based
[10] = Cell cycle arrest in human K562/ADR cells assessed as accumulation in G2/M phase at 2.5 uM after 48 hrs by propidium iodide staining-based flow cytometry (reference value: 8.32 +/- 0.81%); assay type: functional
Tubulin (Homo sapiens) [11] = biological target: T1, Tubulin (Homo sapiens) (UniProt P68371+Q9H4B7+P0DPH7+P68366+Q13509+Q71U36+P04350+Q3ZCM7+P07437+P68363+Q9BQE3+Q6PEY2+Q13885+Q9BVA1+Q9BUF5); experiment: Inhibition of tubulin polymerization in human K562/ADR cells assessed as reduction in microtubule density at 5 uM after 8 hrs by DAPI staining based immunofluorescence microscopy; assay type: cell-based
K562/Adr [12] = experiment: Induction of apoptosis in human K562/ADR cells assessed as viable cells at 2.5 uM after 48 hrs by Annexin V-APC/7-AAD staining based flow cytometry (reference value: 93.25%); assay type: functional; conditions: read-out: Activity
K562/Adr [13] = experiment: Induction of apoptosis in human K562/ADR cells assessed as late apoptotic cells at 2.5 uM after 48 hrs by Annexin V-APC/7-AAD staining based flow cytometry (reference value: 1.69%); assay type: functional
Tubulin (Homo sapiens) [14] = biological target: T1, Tubulin (Homo sapiens); experiment: Inhibition of tubulin polymerization in human K562/ADR cells assessed as microtubule disruption at 5 uM after 8 hrs by DAPI staining based immunofluorescence microscopy; assay type: cell-based
HepG2 = experiment: Antiproliferative activity against human HepG2 cells assessed as growth inhibition after 72 hrs by CCK-8 assay; assay type: functional, cell-based; conditions: HepG2, 72 h
K562/Adr [15] = experiment: Induction of apoptosis in human K562/ADR cells assessed as nuclear fragmentation at 6.5 uM after 48 hrs by Hoechst 33342 staining based fluorescence microscopy; assay type: functional, cell-based
K562/Adr [16] = experiment: Induction of apoptosis in human K562/ADR cells assessed as necrotic cells at 6.5 uM after 48 hrs by Annexin V-APC/7-AAD staining based flow cytometry (reference value: 3.57%); assay type: functional
K562/Adr [17] = experiment: Inhibition of P-glycoprotein in human K562/ADR cells at 6.5 uM after 48 hrs by Western blot analysis; assay type: cell-based
K562/Adr [18] = experiment: Induction of apoptosis in human K562/ADR cells assessed as induction of cell shrinkage at 6.5 uM after 48 hrs by Hoechst 33342 staining based fluorescence microscopy; assay type: functional
K562/Adr [19] = experiment: Induction of apoptosis in human K562/ADR cells assessed as viable cells at 6.5 uM after 48 hrs by Annexin V-APC/7-AAD staining based flow cytometry (reference value: 93.25%); assay type: functional; conditions: read-out: Activity
K562/Adr [20] = experiment: Induction of apoptosis in human K562/ADR cells assessed as early apoptotic cells at 6.5 uM after 48 hrs by Annexin V-APC/7-AAD staining based flow cytometry (reference value: 1.49%); assay type: functional
K562/Adr [21] = experiment: Induction of apoptosis in human K562/ADR cells assessed as nuclear condensation at 6.5 uM after 48 hrs by Hoechst 33342 staining based fluorescence microscopy; assay type: functional, cell-based
[22] = Cell cycle arrest in human K562/ADR cells assessed as accumulation in G2/M phase at 6.5 uM after 48 hrs by propidium iodide staining-based flow cytometry (reference value: 8.32 +/- 0.81%); assay type: functional
Tubulin (Homo sapiens) [23] = biological target: T1, Tubulin (Homo sapiens); experiment: Inhibition of tubulin polymerization in human K562/ADR cells assessed as reduction in microtubule density at 13 uM after 16 hrs by DAPI staining based immunofluorescence microscopy; assay type: cell-based
K562/Adr [24] = experiment: Induction of apoptosis in human K562/ADR cells assessed as late apoptotic cells at 6.5 uM after 48 hrs by Annexin V-APC/7-AAD staining based flow cytometry (reference value: 1.69%); assay type: functional
Tubulin (Homo sapiens) [25] = biological target: T1, Tubulin (Homo sapiens); experiment: Inhibition of tubulin polymerization in human K562/ADR cells assessed as microtubule disruption at 13 uM after 16 hrs by DAPI staining based immunofluorescence microscopy; assay type: cell-based
K562/Adr [26] = experiment: Induction of apoptosis in human K562/ADR cells assessed as induction of cell shrinkage at 0.1 uM after 48 hrs by Hoechst 33342 staining based fluorescence microscopy; assay type: functional
K562/Adr [27] = experiment: Induction of apoptosis in human K562/ADR cells assessed as necrotic cells at 0.1 uM after 48 hrs by Annexin V-APC/7-AAD staining based flow cytometry (reference value: 3.57%); assay type: functional
Tubulin (Homo sapiens) [28] = biological target: T1, Tubulin (Homo sapiens); conditions: K562/Adr, 0.2 uM
Description: Inhibition of tubulin polymerization in human K562/ADR cells assessed as reduction in microtubule density at 0.2 uM after 8 hrs by DAPI staining based immunofluorescence microscopy

K562/Adr [29] = experiment: Induction of apoptosis in human K562/ADR cells assessed as nuclear fragmentation at 0.1 uM after 48 hrs by Hoechst 33342 staining based fluorescence microscopy; assay type: functional, cell-based
K562/Adr [30] = experiment: Induction of apoptosis in human K562/ADR cells assessed as late apoptotic cells at 0.1 uM after 48 hrs by Annexin V-APC/7-AAD staining based flow cytometry (reference value: 1.69%); assay type: functional
Tubulin (Homo sapiens) [31] = biological target: T1, Tubulin (Homo sapiens); conditions: K562/Adr, 0.2 uM; remark: listed apart in the source
Description: Inhibition of tubulin polymerization in human K562/ADR cells assessed as microtubule disruption at 0.2 uM after 8 hrs by DAPI staining based immunofluorescence microscopy

K562/Adr [32] = experiment: Induction of apoptosis in human K562/ADR cells assessed as viable cells at 0.1 uM after 48 hrs by Annexin V-APC/7-AAD staining based flow cytometry (reference value: 93.25%); assay type: functional; conditions: read-out: Activity
[33] = Cell cycle arrest in human K562/ADR cells assessed as accumulation in G2/M phase at 0.1 uM after 48 hrs by propidium iodide staining-based flow cytometry (reference value: 8.32 +/- 0.81%); assay type: functional
K562/Adr [34] = experiment: Induction of apoptosis in human K562/ADR cells assessed as early apoptotic cells at 0.1 uM after 48 hrs by Annexin V-APC/7-AAD staining based flow cytometry (reference value: 1.49%); assay type: functional
K562/Adr [35] = experiment: Induction of apoptosis in human K562/ADR cells assessed as nuclear condensation at 0.1 uM after 48 hrs by Hoechst 33342 staining based fluorescence microscopy; assay type: functional, cell-based
K562/Adr [36] = experiment: Inhibition of P-glycoprotein in human K562/ADR cells at 0.1 uM after 48 hrs by Western blot analysis; assay type: cell-based

Compound: COc1cc([C@@H]2c3cc4c(cc3[C@H](OC(=O)CCC(=O)O[C@H]3O[C@@H]5O[C@@]6(C)CC[C@H]7[C@H](C)CC[C@@H]([C@H]3C)[C@@]57OO6)[C@H]3COC(=O)[C@H]23)OCO4)cc(OC)c1OC
- inhibition (K562/Adr [1]): Active
- IC50 (HUVEC): 0.72 µM
- Activity (K562/Adr [2]): 6.39%
- IC50 [3]: 2.02 µM
- Ratio IC50 (K562 [4]): 4.454
- IC50 (A549): 3.01 µM
- IC50 (HeLa): 0.936 µM
- Activity (K562/Adr [5]): Active
- Activity (K562/Adr [6]): Active
- Activity (K562/Adr [7]): 2.68%
- IC50 (K562 [8]): 0.453 µM
- Activity (K562/Adr [9]): Active
- Activity [10]: 21.4%
- inhibition (Tubulin (Homo sapiens) [11]): Active
- viability at 2.5 µM (K562/Adr [12]): 88.1%
- Activity (K562/Adr [13]): 2.82%
- inhibition (Tubulin (Homo sapiens) [14]): Active
- IC50 (HepG2): 0.672 µM

Compound: C[C@H]1[C@H](OC(=O)CCC(=O)O)O[C@@H]2O[C@@]3(C)CC[C@H]4[C@H](C)CC[C@@H]1[C@@]24OO3 [ARTESUNATE]
- IC50 (HUVEC): 1.09 µM
- IC50 [3]: 6.26 µM
- Ratio IC50 (K562 [4]): 1.042
- Activity (K562/Adr [15]): Active
- IC50 (A549): 15.9 µM
- Activity (K562/Adr [16]): 7.2%
- IC50 (HeLa): 19 µM
- IC50 (K562 [8]): 6 µM
- inhibition (K562/Adr [17]): Active
- Activity (K562/Adr [18]): Active
- viability at 6.5 µM (K562/Adr [19]): 77.5%
- Activity (K562/Adr [20]): 5.97%
- Activity (K562/Adr [21]): Active
- Activity [22]: 16.9%
- IC50 (HepG2): 22.2 µM
- inhibition (Tubulin (Homo sapiens) [23]): Active
- Activity (K562/Adr [24]): 9.31%
- inhibition (Tubulin (Homo sapiens) [25]): Active

Compound: COc1cc([C@@H]2c3cc4c(cc3[C@@H](O[C@@H]3O[C@@H]5CO[C@@H](C)O[C@H]5[C@H](O)[C@H]3O)[C@H]3COC(=O)[C@H]23)OCO4)cc(OC)c1O [ETOPOSIDE]
- IC50 (HUVEC): 1.34 µM
- IC50 [3]: 2.02 µM
- Ratio IC50 (K562 [4]): 4.903
- IC50 (A549): 2.68 µM
- IC50 (HeLa): 1.6 µM
- IC50 (K562 [8]): 0.413 µM
- IC50 (HepG2): 1.75 µM

Compound: COc1cc([C@@H]2c3cc4c(cc3[C@H](O)[C@H]3COC(=O)[C@H]23)OCO4)cc(OC)c1OC [PODOFILOX]
- IC50 (HUVEC): 0.014 µM
- Activity (K562/Adr [26]): Active
- Activity (K562/Adr [27]): 10.26%
- IC50 [3]: 0.085 µM
- Ratio IC50 (K562 [4]): 14.166
- IC50 (A549): 0.014 µM
- inhibition (Tubulin (Homo sapiens) [28]): Active
- IC50 (HeLa): 0.012 µM
- Activity (K562/Adr [29]): Active
- Activity (K562/Adr [30]): 10.65%
- inhibition (Tubulin (Homo sapiens) [31]): Active
- IC50 (K562 [8]): 0.006 µM
- viability at 0.1 µM (K562/Adr [32]): 54.4%
- Activity [33]: 33.2%
- Activity (K562/Adr [34]): 24.7%
- IC50 (HepG2): 0.014 µM
- Activity (K562/Adr [35]): Active
- inhibition (K562/Adr [36]): Active
